Experiment [1] in a line: Inhibition of full length human GST tagged LC3 (1 to 120 residues)/p62 (unknown origin) interaction expressed in Escherichia coli BL21 Star (DE3) incubated for 2 hrs by SPR based competitive binding assay. (SPR reads the build-up and loss of mass on a sensor chip optically.)
For experiment [2], the system named is MM1.S. The experiment in a line: Inhibition of cell growth in human MM1.S cells incubated for 48 hrs by MTT assay. It counts as functional, cell-based. (Formazan colour is commonly taken as a measure of viable cells.)
In experiment [3] the test system is MM1.S. Briefly: Inhibition of cell growth in human MM1.S cells. The format is functional.

Drawing on ChEMBL document CHEMBL5233236, “p62 as a therapeutic target for tumor” (Eur J Med Chem, 2020), this text covers IC50 for five compounds.

SMILES strings stand for the structures. pIC50: −log10 of the molar value.

Turning to `O=C(O)CSc1cc(NS(=O)(=O)c2ccc(Br)cc2)c2ccccc2c1O`, in experiment [1], the negative logarithm of the IC50 (pIC50) (as a rule, the negative decadic logarithm of the IC50, by convention in mol/L) was 6.05.

For `OCCNCc1ccc(OCc2ccc(F)cc2)c(OCc2ccc(F)cc2)c1`, the pIC50 in the experiment on MM1.S [2] is 5.34.

`OCCNCc1ccc(OCc2ccccc2)c(OCc2ccccc2)c1`: in the experiment with MM1.S [2], the pIC50 was 5.21.

For the compound `Fc1ccc(COc2ccc(CNCC3CCCCC3)cc2OCc2ccc(F)cc2F)c(F)c1`, the IC50 (as a rule, the point on the concentration scale where inhibition reaches its midpoint) with MM1.S [3] amounted to 840 nM.

On to `O=C1CC(=O)c2ccc3c4c(ccc1c24)C(=O)CC3=O`, for which, in experiment [1], the pIC50 was 5.70.
